{
  "source": "patent US20230167505A1",
  "about": "“CIRCULATING TUMOR DNA AS A BIOMARKER FOR LEUKEMIA TREATMENT” (Cardiff Oncology, Inc., priority 2020, published 2023)",
  "key": {"[1]": {"tested_on": "relapsed or refractory (R/R) AML", "assay": "Phase 1b antileukemic activity: bone marrow evaluation, response by modified International Working Group criteria 2003", "assay_type": "in vivo, human", "design": "key to Clinical Response: NR = Non-responder; Responders were defined as patients achieving complete response (BM blasts <5%) with or without count recovery (CR+CRi)", "details": "for BM % Blasts Log2(C1/C0): end of cycle 1 vs screening", "procedure": "Treatment plan and study design: […] Antileukemic activity: […] Response to treatment was evaluated by the investigator using the modified International Working Group criteria 2003, detailed in Table 2. Antileukemic activity was assessed in all patients evaluable for DLTs."}, "[2]": {"tested_on": "phosphorylation of the PLK1 substrate, TCTP", "assay": "Plasma inhibitory activity assay (pTCTP/TCTP in HL-60 cells incubated with patient plasma)", "assay_type": "cell-based", "procedure": "Plasma inhibitory activity assay: Onvansertib plasma inhibitory activity was assessed by measuring changes in the phosphorylation of the PLK1 substrate, TCTP, as described previously for FLT3 inhibitors. HL-60 cell line used for this assay was obtained from the ATCC and cultured in Iscove's modified Dulbecco's medium supplemented with 20% FBS. The cell line was not tested for Mycoplasma. Briefly, 3×10^6 HL-60 cells (passage 2-5) were incubated with 1 mL of patient plasma at 37° C. for 1 hour. Cells were washed, lysed, and changes in phosphorylated TCTP (pTCTP)/TCTP were assessed by immunoblot. […] For each dose level, 3-4 patients were analyzed (a total of 18 patients) on the basis of the availability of plasma samples, and each dose level included at least 1 patient of each arm (LDAC/decitabine). For each patient, pTCTP/TCTP level was quantified in cells incubated with plasma collected on day 1 at predose and postdose (tmax) and normalized to day 1 predose sample to measure the % pTCTP inhibition by onvansertib-containing plasma.\nProtein extract preparation and immunoblot: Protein extracts were prepared from PBMCs isolated from CellSave tube and from HL-60 cells using M-PER buffer with Protease and Phosphatase Inhibitor Cocktails (Thermo Fisher Scientific). Protein concentration was measured with the Pierce BCA Protein Assay Kit (Thermo Fisher Scientific). […]"}, "[3]": {"tested_on": "patients with advanced/metastatic solid tumors", "details": "single agent, phase I; cited from earlier work"}, "[4]": {"details": "20 patients chosen for ctDNA analysis"}},
  "data": [
    {"smiles": "CN1CCN(c2ccc(OC(F)(F)F)c(Nc3ncc4c(n3)-c3c(c(C(N)=O)nn3CCO)CC4)c2)CC1", "note": "[onvansertib, 1-(2-hydroxyethyl)-8-{[5-(4-methylpiperazin-1-yl)-2-(trifluoromethoxy)phenyl]amino}-4,5-dihydro-1H-pyrazolo [4,3-h] quinazoline-3-carboxamide]", "values": [
      {"measurement": "Non-Responders, (%)", "setting": "[1]; [4]", "value": 70, "unit": "%"},
      {"measurement": "Responders, (%)", "setting": "[1]; [4]", "value": 30, "unit": "%"},
      {"measurement": "patients with PR", "setting": "[1]; LDAC arm", "value": "one"},
      {"measurement": "patients with ≥50% reduction in bone marrow blasts", "setting": "[1]; LDAC arm, 12 patients", "value": 25, "unit": "%"},
      {"measurement": "CRi rate", "setting": "[1]; LDAC arm, 15 patients", "value": 7, "unit": "%"},
      {"measurement": "Clinical Response", "setting": "[1]; Patient 01-021", "value": "NR"},
      {"measurement": "BM % Blasts Log2(C1/C0)", "setting": "[1]; Patient 01-021", "value": "−0.8625"},
      {"measurement": "Clinical Response", "setting": "[1]; Patient 01-024", "value": "NR"},
      {"measurement": "BM % Blasts Log2(C1/C0)", "setting": "[1]; Patient 01-024", "value": "−0.3219"},
      {"measurement": "Clinical Response", "setting": "[1]; Patient 03-037", "value": "Responder"},
      {"measurement": "BM % Blasts Log2(C1/C0)", "setting": "[1]; Patient 03-037", "value": 0.8301},
      {"measurement": "Clinical Response", "setting": "[1]; Patient 05-016", "value": "NR"},
      {"measurement": "BM % Blasts Log2(C1/C0)", "setting": "[1]; Patient 05-016", "value": 3.0704},
      {"measurement": "Clinical Response", "setting": "[1]; Patient 05-030", "value": "Responder"},
      {"measurement": "BM % Blasts Log2(C1/C0)", "setting": "[1]; Patient 05-030", "value": "−2.0000"},
      {"measurement": "Clinical Response", "setting": "[1]; Patient 05-043", "value": "NR"},
      {"measurement": "BM % Blasts Log2(C1/C0)", "setting": "[1]; Patient 05-043", "value": "−0.4150"},
      {"measurement": "Clinical Response", "setting": "[1]; Patient 07-009", "value": "Responder"},
      {"measurement": "BM % Blasts Log2(C1/C0)", "setting": "[1]; Patient 07-009", "value": "−0.0468"},
      {"measurement": "Clinical Response", "setting": "[1]; Patient 07-013", "value": "NR"},
      {"measurement": "Clinical Response", "setting": "[1]; Patient 07-018", "value": "NR"},
      {"measurement": "Clinical Response", "setting": "[1]; Patient 07-033", "value": "NR"},
      {"measurement": "Clinical Response", "setting": "[1]; Patient 07-035", "value": "Responder"},
      {"measurement": "BM % Blasts Log2(C1/C0)", "setting": "[1]; Patient 07-035", "value": "−1.7370"},
      {"measurement": "Clinical Response", "setting": "[1]; Patient 07-036", "value": "NR"},
      {"measurement": "BM % Blasts Log2(C1/C0)", "setting": "[1]; Patient 07-036", "value": "−1.0000"},
      {"measurement": "Clinical Response", "setting": "[1]; Patient 08-027", "value": "NR"},
      {"measurement": "BM % Blasts Log2(C1/C0)", "setting": "[1]; Patient 08-027", "value": "−0.1043"},
      {"measurement": "Clinical Response", "setting": "[1]; Patient 08-058", "value": "Responder"},
      {"measurement": "BM % Blasts Log2(C1/C0)", "setting": "[1]; Patient 08-058", "value": 0.9329},
      {"measurement": "Clinical Response", "setting": "[1]; Patient 09-026", "value": "NR"},
      {"measurement": "BM % Blasts Log2(C1/C0)", "setting": "[1]; Patient 09-026", "value": 0.3785},
      {"measurement": "Clinical Response", "setting": "[1]; Patient 09-032", "value": "NR"},
      {"measurement": "BM % Blasts Log2(C1/C0)", "setting": "[1]; Patient 09-032", "value": 0.1454},
      {"measurement": "Clinical Response", "setting": "[1]; Patient 09-064", "value": "Responder"},
      {"measurement": "BM % Blasts Log2(C1/C0)", "setting": "[1]; Patient 09-064", "value": "−3.9069"},
      {"measurement": "Clinical Response", "setting": "[1]; Patient 11-019", "value": "NR"},
      {"measurement": "BM % Blasts Log2(C1/C0)", "setting": "[1]; Patient 11-019", "value": 0.0000},
      {"measurement": "Clinical Response", "setting": "[1]; Patient 11-040", "value": "NR"},
      {"measurement": "BM % Blasts Log2(C1/C0)", "setting": "[1]; Patient 11-040", "value": 0.4021},
      {"measurement": "Clinical Response", "setting": "[1]; Patient 12-041", "value": "NR"},
      {"measurement": "BM % Blasts Log2(C1/C0)", "setting": "[1]; Patient 12-041", "value": 0.6951},
      {"measurement": "median duration of CR/CRi", "setting": "[1]; decitabine arm", "value": 5.5, "unit": "months"},
      {"measurement": "median number of cycles to achieve CR/CRi", "setting": "[1]; decitabine arm", "value": 4, "unit": "cycles"},
      {"measurement": "range of duration of CR/CRi", "setting": "[1]; decitabine arm", "value": "1.5-11.5 months"},
      {"measurement": "range of number of cycles to achieve CR/CRi", "setting": "[1]; decitabine arm", "value": "1-7 cycles"},
      {"measurement": "Overall response rate (ORR: CR, CRi, MLFS, PR)", "setting": "[1]; decitabine arm (7/21 patients)", "value": 33, "unit": "%"},
      {"measurement": "patients with ≥50% reduction in bone marrow blasts", "setting": "[1]; decitabine arm, 18 patients with evaluable bone marrow biopsy", "value": 44, "unit": "%"},
      {"measurement": "patients with MLFS", "setting": "[1]; decitabine arm, Phase 1b", "value": "one"},
      {"measurement": "patients with PR", "setting": "[1]; decitabine arm, Phase 1b", "value": "one"},
      {"measurement": "CR/CRi rate", "setting": "[1]; decitabine arm, Phase 1b, 21 evaluable patients, all doses", "value": 24, "unit": "%"},
      {"measurement": "median number of cycles to achieve CR/CRi", "setting": "[1]; responders of both arms (n=6)", "value": 3, "unit": "cycles"},
      {"measurement": "range of number of cycles to achieve CR/CRi", "setting": "[1]; responders of both arms (n=6)", "value": "1-7 cycles"},
      {"measurement": "pTCTP inhibition by patient plasma versus dose", "setting": "[2]; plasma from all dose levels (12-60 mg/m^2)", "value": "greater pTCTP inhibition at higher doses"},
      {"measurement": "pTCTP in HL-60 cells incubated with on-treatment plasma", "setting": "[2]; plasma of days 1 and 5, not with day 22 plasma (undetectable onvansertib)", "value": "reduced"},
      {"measurement": "primary dose-limiting toxicities", "setting": "[3]", "value": "neutropenia and thrombocytopenia"},
      {"measurement": "recovery from hematologic toxicities", "setting": "[3]", "value": "≤ 3", "unit": "weeks"}
    ]}
  ]
}
